The experiment has as its system T1, TthHPRT (hypoxanthine phosphoribosyltransferase Thermus thermophilus HB27).
T1 construct: gene hpt; C-terminal His-tag (pET-23a+), E. coli C3030
Kind of experiment: HPLC product quantification, initial rate, nonlinear regression. It counts as biochemical. Conditions: 5 mM MgCl2, 20 mM Tris-HCl pH 8.0, 70 °C. From the text: HPLC product quantification, initial rate, nonlinear regression on TthHPRT (hypoxanthine phosphoribosyltransferase Thermus thermophilus HB27)

`O=P(O)(O)OC[C@H]1O[C@H](OP(=O)(O)OP(=O)(O)O)[C@H](O)[C@@H]1O` [PRPP]: the Km (0.50 mM hypoxanthine) came out at 220 ± 60 µM.

On to `Nc1nc2[nH]cnc2c(=O)[nH]1` [guanine], for which, under “1 mM PRPP”, the Km amounted to 28 ± 9 µM.

`O=c1[nH]cnc2nc[nH]c12` [hypoxanthine]: the Km (1 mM PRPP) came out at 13 ± 4 µM.

What is called Km is the concentration of substrate that gives half-maximal velocity.
